From patent US20090023186A1, “USE OF VALPROIC ACID FOR ENHANCING PRODUCTION OF RECOMBINANT PROTEINS IN MAMMALIAN CELLS” (EXCELLGENE SA, priority 2007, published 2009) come the findings set out here.

SMILES strings stand for the structures.

For this assay, the system named is HEK293E cells. In words: Multiple VPA additions, IgG batch titer by ELISA (Example 3). Type of assay: cell-based, Human. As to conditions: day 10 after transfection. On the procedure:
10 million suspension-adapted HEK293E cells were resuspended in 0.5 ml of Ex-Cell 293 HEK 293 serum-free medium with 4 mmol/l L-glutamine (Cat. No. 14571C-[…]; Lot No. 6A0093; SAFC Biosciences, Lenexa, Kans., USA, “Ex-Cell” medium; note: “Ex-Cell” medium-as used herein-refers to a medium comprising 4 mmol/l L-glutamine) in a 50-ml filter tube each (TPP AG, Trasadingen, Switzerland; Cat. No. 87050, Lot 20050174). In a separate set, 10 million suspension-adapted CHO DG44 cells were resuspended in 0.5 ml of ProCHO5 serum-free medium with 4 mmol/[…] hypoxanthine and 0.194 g/l thymidine (BioWhittaker (Lonza), Belgium; Cat. No. BE12-[…]; Lot No. 7 MB0040; “ProCHO5” medium; note: “ProCHO5” medium-as used herein-refers to a medium comprising 4 mmol/[…] hypoxanthine and 0.194 g/l thymidine) in a 50-ml filter tube each (TPP AG, Trasadingen, Switzerland; Cat. No. 87050, Lot 20050174). Then 12.5 μg plasmid DNA at a concentration of 1 μg/μl was added in each tube with the following composition 50% (6.25 μg) p-LC (SEQ ID NO: 1) 50% (6.25 μg) p-HC (SEQ ID NO: 3). Plasmid p-LC comprises the genetic information for the production of the light chain of an IgG antibody, plasmid p-HC comprises the genetic information for the production of the heavy chain of an IgG antibody. The particular vector constructs used in the present invention can also be obtained from the inventors. The inventors can be contacted via e-mail at […]. […] In short, Goat anti-human kappa light chain IgG (Biosource) was used for coating the ELISA-plates, and with AP-conjugated goat anti-human gamma chain IgG (Biosource) the synthesized IgG1 was detected. […] Absorption was measured at 405 nm against 490 nm using a microplate reader (SPECTRAmaxTM340; Molecular Devices, Palo Alto, Calif., USA).
(An ELISA detects its analyte on a solid surface through an enzyme-linked reagent.)

Consider `CCCC(CCC)C(=O)O` [VPA, valproic acid], for which the “batch titers, direct addition versus slowly increasing concentration” value is on record as “statistically not different”. The compound further returned a Batch titer (4 mmol/l VPA at day 0) of 193 mg/L. For the same compound, the Batch titer (escalating dosage, 1 to 4 mmol/l in 1 mmol/l increments every other day) turned out to be 182 mg/L.
